Source: publication PMC7617869, “Molecular glues that inhibit deubiquitylase activity and inflammatory signaling” (Nature Structural & Molecular Biology, 2025)
Values joined by “and” are separate entries in the source; they are usually repeats but may differ in a detail not shown here. Equal values may be shown once.

Columns and labels:
[1] = system: ISG expression in SSc PBMCs; experiment: SSc PBMC type I IFN signaling gene expression array, unstimulated; assay type: cell-based, human; conditions: unstimulated PBMCs from SSc patients; one value per patient (P1-P9)
Protocol: PBMCs in vitro experiments
Peripheral blood mononuclear cells (PBMCs) from healthy and SSc donors were separated using density gradient method (Leucosep™, Greiner Bio-One International) from EDTA anticoagulated peripheral blood; isolated cells were washed twice by PBS. PBMCs were then incubated in RPMI1640 […]
For healthy PBMCs, cells were stimulated with 20 ng/mL of IFN (+/- compounds or DMSO). For SSc PBMCs, cells were in basal conditions with no additional IFN stimulation. Cells were centrifuged at 300 g for 10 minutes. […]
RNA was extracted from cell pellets using TRIzol™ (ThermoFisher
Scientific, Waltham, MA) and processed using Quick-RNA Miniprep Kit (Zymo Research) as per the manufacturer’s instruction.
For Type I IFN signalling analysis, the human IFN I RT2 Profiler PCR Array (Qiagen, PAMM-016ZE) was performed on available RNA from healthy (n=3) and SSc (n=9) donors. RNA was converted to cDNA using RT2 First Strand Kit (Qiagen). Next, the cDNA was mixed with RT2 SYBR Green Mastermix (Qiagen, Venlo). Successful PCR performance was confirmed by assay tests for genomic DNA contamination, RNA sample quality, as well as single melt curve determination and <35 Ct for each gene, leading to validated gene expression of 67 genes. Relative expression for each gene was determined, firstly by ∆CT calculated using the geometric mean of 4 housekeeping genes (ACTB, GAPDH, HPRT1, RPLP0), followed by 2^(-∆CT), and expressed as fold change to control, according to manufacturer’s guidance. IFN2α-induced ISGs in healthy donors were determined using a Student’s t-test (two-tail distribution and equal variances) on the triplicate fold change in 2^(-ΔCT) values between […]
donors). Heatmaps were generated using the “pheatmap” function in R (v4.0.2) and RStudio (v1.3.1093) applying row scaling to standardise the expression data across samples (R core team 2020.
R Foundation for Statistical Computing). The IFN2α inducible genes determined in healthy donors […]
171-C. To account for Type I IFN signalling heterogeneity across samples, the mean 2^(-∆CT) for each […]
relative gene expression, illustrated as a fold change and visualised in log2. The Type I IFN signalling array data for the patient samples is included in Source Data Figure 6, Extended Data Fig. 9.

[2] = system: ISRE in THP-1 cells (TLR3 agonist polyI:C); experiment: THP-1 ISRE luciferase reporter, polyI:C stimulation; assay type: cell-based, human; conditions: polyI:C 1 µg/mL, 4 μM compound, 16 h
Protocol: THP-1 in vitro experiments
THP-1-DualTM cells (InvivoGen), derived from a human monocytic cell line, isolated from a patient with acute monocytic leukaemia, were cultured as per manufacturer’s guidance. Cells were seeded at 1x10^6 cells/mL in RPMI1640 media containing 10% fetal bovine serum (FBS), 1% penicillin-streptomycin (PS) (Gibco Laboratories) with DMSO (0.1%) (control) or in media containing JMS-175- […]
ng/mL) (Merck Life Science), ODN 2216 (1 µM) (Miltenyi Biotec), or Poly:IC (1 µg/mL) (InvivoGen).
Tofacitinib (Cambridge Biosciences) at 0.4 µM was used for comparison against a known JAK inhibitor.
Cells were centrifuged at 300 g for 5 minutes. Supernatant was removed and subjected to simultaneous study of the NF -κB pathway, by monitoring the activity of secreted alkaline phosphatase reporter (SEAP), and the IRF pathway, by assessing the activity o f a secreted Lucia luciferase using QUANTI - Blue ™ Solution and QUANTI -Luc™ 4 Lucia/Gaussia (InvivoGen), respectively, as per manufacturer’s instructions. Pelleted cells were used for FACS analysis using IFNα/β R1 APC-conjugated antibody or isotype control (Biotechne, FAB245A and IC002A), or unstained staining procedure with and without Zombie GreenTM (Biolegend). Samples were analysed using CytoFlex LX (Beckman) (50,000 live cells per condition). Median fluorescence intensity for APC channel gated on single cell live cells was analysed and compared as a percentage to control (no stimulation condition). […]

Cn1cc(NC(=O)c2c(Cl)cccc2Cl)c(C(=O)NC2CCN(C(=O)c3c(Cl)cccc3Cl)CC2)n1 [AP-5-145]
ADAR, Type I IFN signalling array raw data [1]: 3.585 and 4.485 and 4.334 and 4.353 and 5.313 and 4.699 and 4.415 and 5.111 and 3.559
BST2, Type I IFN signalling array raw data [1]: 3.184 and 2.458 and 3.302 and 3.672 and 2.309 and 1.595 and 4.59 and 3.685 and 1.654
CASP1, Type I IFN signalling array raw data [1]: 1.628 and 0.9815 and 2.95 and 3.664 and 1.948 and 2.361 and 2.033 and 2.206 and 1.183
CD86, Type I IFN signalling array raw data [1]: 4.785 and 2.783 and 4.5852 and 3.1897 and 4.314 and 3.552 and 4.0343 and 4.013 and 3.55
CXCL10, Type I IFN signalling array raw data [1]: 2.8643 and 6.708 and 5.453 and 2.734 and 4.396 and 4.529 and 5.68 and 6.078 and 3.688
DDX58, Type I IFN signalling array raw data [1]: 2.4595 and 2.543 and 3.026 and 3.209 and 2.763 and 1.787 and 3.543 and 4.173 and 1.175
GBP1, Type I IFN signalling array raw data [1]: 0.1474 and 2.145 and 2.622 and 1.459 and 0.8545 and 1.754 and 2.939 and 2.1766 and -0.4621
IFI6, Type I IFN signalling array raw data [1]: 2.465 and 2.227 and 2.936 and 2.73 and 1.772 and 0.8033 and 3.207 and 3.6638 and 1.0872
IFI16, Type I IFN signalling array raw data [1]: 1.83 and 1.644 and 2.049 and 2.362 and 1.331 and 1.292 and 2.492 and 2.951 and 1.1658
IFIH1, Type I IFN signalling array raw data [1]: 3.174 and 3.642 and 3.693 and 3.986 and 3.429 and 3.042 and 4.0109 and 5.193 and 2.582
IFIT1, Type I IFN signalling array raw data [1]: 4.24 and 3.643 and 3.989 and 4.293 and 2.488 and 1.397 and 4.575 and 7.138 and 1.6699
IFIT2, Type I IFN signalling array raw data [1]: 3.353 and 3.202 and 2.7801 and 3.719 and 2.327 and 0.07597 and 4.728 and 5.592 and 0.851
IFIT3, Type I IFN signalling array raw data [1]: 2.463 and 3.281 and 3.064 and 3.575 and 3.043 and 1.248 and 5.135 and 5.476 and 1.263
IFITM1, Type I IFN signalling array raw data [1]: -0.2471 and 0.1243 and 0.2716 and 1.178 and 0.8183 and 0.3168 and 1.196 and 1.705 and -0.8285
IFITM2, Type I IFN signalling array raw data [1]: 3.999 and 3.471 and 4.22 and 5.1798 and 5.262 and 5.108 and 4.673 and 5.09 and 4.191
IFITM3, Type I IFN signalling array raw data [1]: 3.006 and 2.32 and 3.244 and 3.786 and 1.434 and -0.1662 and 3.42 and 4.49 and -0.2026
IRF1, Type I IFN signalling array raw data [1]: 1.06 and 1.224 and 2.232 and 2.144 and 1.15 and 2.067 and 2.585 and 1.973 and 0.5242
IRF7, Type I IFN signalling array raw data [1]: 5.407 and 5.206 and 4.576 and 6.178 and 4.455 and 3.933 and 5.89 and 5.935 and 9.933
IRF9, Type I IFN signalling array raw data [1]: 2.066 and 2.065 and 2.241 and 2.2692 and 1.294 and 1.106 and 2.973 and 2.809 and 0.8366
ISG15, Type I IFN signalling array raw data [1]: 2.596 and 6.312 and 3.3545 and 3.693 and 0.9621 and 0.3667 and 4.1244 and 6.015 and 0.1079
ISG20, Type I IFN signalling array raw data [1]: 2.432 and 2.479 and 2.547 and 3.375 and 2.843 and 3.174 and 3.393 and 3.464 and 1.322
MX1, Type I IFN signalling array raw data [1]: 4.424 and 4.226 and 3.58 and 4.634 and 2.28 and 2.399 and 4.395 and 5.558 and 2.679
MX2, Type I IFN signalling array raw data [1]: 4.173 and 3.658 and 2.952 and 4.357 and 2.358 and 2.074 and 3.745 and 4.851 and 2.355
MYD88, Type I IFN signalling array raw data [1]: 3.563 and 2.295 and 2.992 and 3.3169 and 2.321 and 1.993 and 3.136 and 2.869 and 2.18
NMI, Type I IFN signalling array raw data [1]: 1.73 and 1.406 and 2.205 and 1.958 and 1.878 and 1.724 and 2.633 and 2.762 and 1.099
OAS1, Type I IFN signalling array raw data [1]: 3.537 and 3.8519 and 3.958 and 4.26 and 2.489 and 2.393 and 5.01 and 4.925 and 2.848
OAS2, Type I IFN signalling array raw data [1]: 3.256 and 3.665 and 3.696 and 4.93 and 3.216 and 2.622 and 4.725 and 4.971 and 2.257
PML, Type I IFN signalling array raw data [1]: 3.769 and 4.451 and 4.457 and 4.682 and 3.169 and 3.581 and 5.048 and 5.21 and 2.632
SOCS1, Type I IFN signalling array raw data [1]: 4.276 and 3.145 and 2.943 and 3.915 and 3.6717 and 2.288 and 4.381 and 4.149 and 1.789
STAT1, Type I IFN signalling array raw data [1]: -1.171 and 0.5507 and 0.704 and -0.4526 and -0.2783 and 1.689 and 0.5533 and 0.2423 and -1.283
STAT2, Type I IFN signalling array raw data [1]: 3.543 and 4.373 and 3.597 and 3.344 and 3.627 and 3.236 and 4.148 and 3.986 and 2.129
STAT3, Type I IFN signalling array raw data [1]: 1.898 and 1.636 and 1.633 and 5.446 and 2.412 and 1.5196 and 2.3996 and 2.61 and 1.33
TAP1, Type I IFN signalling array raw data [1]: 1.436 and 1.649 and 2.5757 and 2.2546 and 2.075 and 1.836 and 3.734 and 2.309 and 0.9557
TNFSF10, Type I IFN signalling array raw data [1]: 2.318 and 2.989 and 3.028 and 3.374 and 2.092 and 2.434 and 3.558 and 3.768 and 2.177
ISRE luciferase signal in THP-1 supernatant [2]: 502.333 and 324.667 and 347.333
